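Exposure lasted 48 hours, with cells grown in 96-well plates and compounds tested at five concentrations. The concentration for 50% growth inhibition is given as GI50.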 Calls of active or inactive are those of the source. No stated cut-off is given here; in the data, active = GI50 up to about 1.1 µM and inactive = higher.
Key:
Experiment in all cases: NCI-60 cell line screen, 48 h
[1] = tested on: 786-0
[2] = tested on: A498
[3] = tested on: A549
[4] = tested on: ACHN
[5] = tested on: BT-549
[6] = tested on: CAKI-1
[7] = tested on: CCRF-CEM
[8] = tested on: COLO 205
[9] = tested on: DU-145
[10] = tested on: EKVX
[11] = tested on: HCC 2998
[12] = tested on: HCT-116
[13] = tested on: HCT-15
[14] = tested on: HL-60
[15] = tested on: HOP-62
[16] = tested on: HOP-92
[17] = tested on: Hs-578T
[18] = tested on: K562
[19] = tested on: KM12
[20] = tested on: LOX IMVI
[21] = tested on: M14
[22] = tested on: MCF7
[23] = tested on: MDA-MB-231
[24] = tested on: MDA-MB-435
[25] = tested on: MDA-N
[26] = tested on: MOLT-4
[27] = tested on: NCI-H226
[28] = tested on: NCI-H23
[29] = tested on: NCI-H460
[30] = tested on: NCI/ADR-RES
[31] = tested on: OVCAR-3
[32] = tested on: OVCAR-4
[33] = tested on: OVCAR-5
[34] = tested on: OVCAR-8
[35] = tested on: PC-3
[36] = tested on: RPMI-8226
[37] = tested on: RXF 393
[38] = tested on: SF-268
[39] = tested on: SF-295
[40] = tested on: SF-539
[41] = tested on: SK-MEL-28
[42] = tested on: SK-MEL-5
[43] = tested on: SK-OV-3
[44] = tested on: SN12C
[45] = tested on: SNB-19
[46] = tested on: SNB-75
[47] = tested on: SR
[48] = tested on: SW-620
[49] = tested on: T47D
[50] = tested on: TK-10
[51] = tested on: U-251
[52] = tested on: UACC-257
[53] = tested on: UACC-62
[54] = tested on: UO-31
[55] = tested on: HT-29
[56] = tested on: IGROV-1
[57] = tested on: Malme-3M
[58] = tested on: SK-MEL-2

Measured: GI50

Cc1cc(C)n(C(=O)CSc2nnc(SCC(=O)n3nc(C)cc3C)s2)n1
> 100 µM: [13]
inactive: [1] > 100 µM | [2] > 100 µM | [3] > 100 µM | [4] > 100 µM | [5] > 100 µM | [6] > 100 µM | [7] > 100 µM | [8] > 100 µM | [9] > 100 µM | [10] 25.5 µM | [11] > 100 µM | [12] > 100 µM | [14] > 100 µM | [15] 80 µM | [16] > 100 µM | [17] 33.8 µM | [18] > 100 µM | [19] > 100 µM | [20] > 100 µM | [21] > 100 µM | [22] > 100 µM | [23] > 100 µM | [24] > 100 µM | [25] > 100 µM | [26] > 100 µM | [27] > 100 µM | [28] > 100 µM | [29] > 100 µM | [30] > 100 µM | [31] 91.8 µM | [32] > 100 µM | [33] > 100 µM | [34] > 100 µM | [35] > 100 µM | [36] > 100 µM | [37] > 100 µM | [38] > 100 µM | [39] > 100 µM | [40] > 100 µM | [41] > 100 µM | [42] > 100 µM | [43] > 100 µM | [44] > 100 µM | [45] > 100 µM | [46] 40 µM | [47] > 100 µM | [48] > 100 µM | [49] > 100 µM | [50] > 100 µM | [51] > 100 µM | [52] > 100 µM | [53] > 100 µM | [54] > 100 µM

O=C(c1ccco1)N(C(=S)OCc1ccccn1)c1ccccc1
inactive: [1] > 100 µM | [2] > 100 µM | [4] 86.1 µM | [5] > 100 µM | [6] > 100 µM | [7] 69.8 µM | [8] > 100 µM | [9] > 100 µM | [10] 13.3 µM | [12] > 100 µM | [14] > 100 µM | [15] 16 µM | [55] > 100 µM | [17] > 100 µM | [56] 50.1 µM | [18] 75.3 µM | [19] > 100 µM | [20] > 100 µM | [21] > 100 µM | [22] 75.3 µM | [23] > 100 µM | [24] > 100 µM | [25] > 100 µM | [26] > 100 µM | [57] 17.2 µM | [27] 29.6 µM | [28] > 100 µM | [30] 62.5 µM | [31] > 100 µM | [33] > 100 µM | [34] > 100 µM | [35] 59.8 µM | [36] 49.3 µM | [37] 30.9 µM | [38] > 100 µM | [40] 36 µM | [41] > 100 µM | [58] > 100 µM | [42] 88.9 µM | [43] > 100 µM | [44] > 100 µM | [45] > 100 µM | [47] 1.25 µM | [48] > 100 µM | [49] 25.1 µM | [50] > 100 µM | [51] > 100 µM | [52] > 100 µM | [53] > 100 µM | [54] 43.9 µM
> 100 µM: [13]

C=CCOc1ccccc1C1(O)c2ccccc2C2=NCCCN21 (stereo not given)
inactive: [1] 47.3 µM | [2] > 100 µM | [3] > 100 µM | [4] 37.8 µM | [5] 81.1 µM | [6] > 100 µM | [7] 33 µM | [8] 21.4 µM | [9] 57.9 µM | [10] 56.1 µM | [11] 15.7 µM | [12] 34.2 µM | [14] 26.8 µM | [15] 18.9 µM | [16] 56.9 µM | [55] 19.5 µM | [17] 77.8 µM | [56] 16.8 µM | [18] 45.3 µM | [19] 32.4 µM | [20] 38.1 µM | [21] 18.7 µM | [22] 31.5 µM | [23] > 100 µM | [24] 30.9 µM | [25] 39.9 µM | [26] 32.9 µM | [27] 31.8 µM | [28] 30.8 µM | [29] 78.9 µM | [30] > 100 µM | [31] 22.2 µM | [32] 70.3 µM | [33] 32.3 µM | [34] 19.5 µM | [35] 20.7 µM | [36] 35.6 µM | [38] > 100 µM | [39] 31 µM | [40] 17.6 µM | [41] 20.4 µM | [42] 25.6 µM | [43] > 100 µM | [44] 74.1 µM | [45] 33.5 µM | [46] 15.1 µM | [47] > 100 µM | [48] 56.5 µM | [49] > 100 µM | [50] 90.8 µM | [51] 46.5 µM | [52] 30.9 µM | [53] 40.9 µM | [54] > 100 µM
> 100 µM: [13]

Reference: ChEMBL document CHEMBL1201862, “PubChem BioAssay data set” (2004)
